Laboratory results from publication PMC3293837, “Biophysical Property and Broad Anti-HIV Activity of Albuvirtide, a 3-Maleimimidopropionic Acid-Modified Peptide Fusion Inhibitor” (PLoS ONE, 2012).

Legend:
Format in all cases: cell-based, HIV-1
[1] = tested on: 92RW020 pseudovirus (subtype A); details: 92RW020, subtype A, R5; TZM-bl, 48 h; triplicate, mean ± SD of three independent experiments
From the text: (§1) A panel of plasmids encoding HIV-1 Envs were obtained through the AIDS Research and Reference Reagent Program (ARRRP), Division of AIDS, NIAID, NIH, including subtype A Env clones pSVIII-92RW020.5 and 92UG037.8 from Dr. B.H. Hahn; subtype B Env clones SC422661.8, TRO.11 and AC10.0.29 from Drs. D. Montefiori, F. Gao and M. Li, pRHPA4259.7 and pREJO4541.67 from Drs. B.H. Hahn and J.F. Salazar-Gonzalez, and pCAAN5342.A2 from Drs. B.H. Hahn and D.L. Kothe; subtype C Env clones Du172.17 and Du422.1 from Drs. D. Montefiori, F. Gao, S. Abdool Karim and G. Ramjee, CAP45.2.00.G3 from Drs. L. Morris, K. Mlisana and D. Montefiori, ZM197M.PB7 from Drs. B.H. Hahn, Y. Li and J.F. Salazar-Gonzalez, ZM109F.PB4 from Drs. E. Hunter and C. Derdeyn. Six CRF07_BC Env clones (CH064.20, CH070.1, CH091.9, CH110.2, CH119.10 and CH120.6) were generous gifts by Dr. Y. Shao in the Chinese Center for Disease Control and Prevention, Beijing, China. A panel of Env clones derived from subtype B′ (B01, B02, B04, and 43-22), CRF01_AE (SHX335.24, YN192.31, AE01, AE03, GX2010.36, GX11.13, GX2010.36H, BJ5.11), and CRF07_BC (BC02, BC03, BC05, BC07, BC14, SC19-15, BJ22-5, YN148R-9, XJ50-6, HB5-3) were kindly provided by Dr. Y. Wang from the National Institute for the Control of Pharmaceutical and Biological Products, Beijing, China.

[2] = tested on: AE01 pseudovirus (CRF01_AE); details: R5, TZM-bl, 48 h, triplicate, mean ± SD of at least three independent experiments
From the text: as §1

[3] = tested on: CAAN5342 pseudovirus (subtype B); details: R5, TZM-bl, 48 h, triplicate, mean ± SD of three independent experiments
From the text: as §1

[4] = tested on: B02 pseudovirus (subtype B′); details: R5, TZM-bl, 48 h, triplicate, mean ± SD of at least three independent experiments
From the text: as §1

[5] = tested on: YN192.31 pseudovirus (CRF01_AE); details: YN192.31, CRF01_AE, R5; TZM-bl, 48 h; triplicate, mean ± SD of at least three independent experiments
From the text: as §1

[6] = tested on: Du422.1 pseudovirus (subtype C); details: Du422.1, subtype C, R5; TZM-bl, 48 h; triplicate, mean ± SD of three independent experiments
From the text: as §1

[7] = tested on: RHPA4259 pseudovirus (subtype B); details: R5, TZM-bl, 48 h, triplicate, mean ± SD of three independent experiments
From the text: as §1

[8] = tested on: AE03 pseudovirus (CRF01_AE); details: R5, TZM-bl, 48 h, triplicate, mean ± SD of at least three independent experiments
From the text: as §1

[9] = tested on: CAP45.2.00.G3 pseudovirus (subtype C); details: CAP45.2.00.G3, subtype C, R5; TZM-bl, 48 h; triplicate, mean ± SD of three independent experiments
From the text: as §1

[10] = tested on: CH110 pseudovirus (CRF07_BC); details: R5, TZM-bl, 48 h, triplicate, mean ± SD of at least three independent experiments
From the text: as §1

[11] = tested on: YN148r-9 pseudovirus (CRF07_BC); details: YN148r-9, CRF07_BC, R5; TZM-bl, 48 h; triplicate, mean ± SD of at least three independent experiments
From the text: as §1

[12] = tested on: ZM197M.PB7 pseudovirus (subtype C); details: R5, TZM-bl, 48 h, triplicate, mean ± SD of three independent experiments
From the text: as §1

[13] = tested on: SC19-15 pseudovirus (CRF07_BC); details: SC19-15, CRF07_BC, R5; TZM-bl, 48 h; triplicate, mean ± SD of at least three independent experiments
From the text: as §1

[14] = tested on: BC14 pseudovirus (CRF07_BC); details: R5, TZM-bl, 48 h, triplicate, mean ± SD of at least three independent experiments
From the text: as §1

[15] = tested on: SHX335.24 pseudovirus (CRF01_AE); details: SHX335.24, CRF01_AE, R5; TZM-bl, 48 h; triplicate, mean ± SD of at least three independent experiments
From the text: as §1

[16] = tested on: XJ50-6 pseudovirus (CRF07_BC); details: XJ50-6, CRF07_BC, R5; TZM-bl, 48 h; triplicate, mean ± SD of at least three independent experiments
From the text: as §1

[17] = tested on: GX11.13 pseudovirus (CRF01_AE); details: GX11.13, CRF01_AE, R5; TZM-bl, 48 h; triplicate, mean ± SD of at least three independent experiments
From the text: as §1

[18] = tested on: BC05 pseudovirus (CRF07_BC); details: R5, TZM-bl, 48 h, triplicate, mean ± SD of at least three independent experiments
From the text: as §1

[19] = tested on: BC02 pseudovirus (CRF07_BC); details: R5, TZM-bl, 48 h, triplicate, mean ± SD of at least three independent experiments
From the text: as §1

[20] = tested on: GX2010.36 pseudovirus (CRF01_AE); details: GX2010.36, CRF01_AE, R5; TZM-bl, 48 h; triplicate, mean ± SD of at least three independent experiments
From the text: as §1

[21] = tested on: AC10.0.29 pseudovirus (subtype B); details: AC10.0.29, subtype B, R5; TZM-bl, 48 h; triplicate, mean ± SD of three independent experiments
From the text: as §1

[22] = tested on: CH119 pseudovirus (CRF07_BC); details: R5, TZM-bl, 48 h, triplicate, mean ± SD of at least three independent experiments
From the text: as §1

enfuvirtide gave an IC50 [1] of 25.4 ± 9.81 nM, an IC50 [2] of 24.8 ± 2.25 nM and an IC50 [3] of 723 ± 53.5 nM. For the same substance, the IC50 [4] was 8.59 ± 0.8 nM, the IC50 [5] was 68.5 ± 3.25 nM and the IC50 [6] was 28.4 ± 5.14 nM. The IC50 [7] was 281.9 ± 0.57 nM, the IC50 [8] was 7.8 ± 1.66 nM and the IC50 [9] was 96.2 ± 6.91 nM. For the same substance, the IC50 [10] was 18.6 ± 3.15 nM, the IC50 [11] was 131 ± 14.7 nM and the IC50 [12] was 63.3 ± 17 nM. It also gave an IC50 [13] of 7.61 ± 0.97 nM, an IC50 [14] of 109 ± 52.6 nM and an IC50 [15] of 51 ± 7.35 nM. For the same substance, the IC50 [16] was 81.1 ± 17.6 nM, the IC50 [17] was 6.6 ± 0.32 nM and the IC50 [18] was 4.39 ± 0.25 nM. It also gave an IC50 [19] of 2.6 ± 0.48 nM, an IC50 [20] of 18.1 ± 3.75 nM and an IC50 [21] of 10.1 ± 0.45 nM. For the same substance, the IC50 [22] was 22.1 ± 2.74 nM.
